Eight compounds from patent US8575321B2, “Benzylbenzene derivatives and methods of use” (Theracos, Inc., priority 2007, dated 2013) can be followed below.

One assay has as its target T1, human SGLT2 (Homo sapiens, UniProt P31639).
T1 construct: A full-length cDNA clone expressing human SGLT2
T1 sequence (P31639 1-672): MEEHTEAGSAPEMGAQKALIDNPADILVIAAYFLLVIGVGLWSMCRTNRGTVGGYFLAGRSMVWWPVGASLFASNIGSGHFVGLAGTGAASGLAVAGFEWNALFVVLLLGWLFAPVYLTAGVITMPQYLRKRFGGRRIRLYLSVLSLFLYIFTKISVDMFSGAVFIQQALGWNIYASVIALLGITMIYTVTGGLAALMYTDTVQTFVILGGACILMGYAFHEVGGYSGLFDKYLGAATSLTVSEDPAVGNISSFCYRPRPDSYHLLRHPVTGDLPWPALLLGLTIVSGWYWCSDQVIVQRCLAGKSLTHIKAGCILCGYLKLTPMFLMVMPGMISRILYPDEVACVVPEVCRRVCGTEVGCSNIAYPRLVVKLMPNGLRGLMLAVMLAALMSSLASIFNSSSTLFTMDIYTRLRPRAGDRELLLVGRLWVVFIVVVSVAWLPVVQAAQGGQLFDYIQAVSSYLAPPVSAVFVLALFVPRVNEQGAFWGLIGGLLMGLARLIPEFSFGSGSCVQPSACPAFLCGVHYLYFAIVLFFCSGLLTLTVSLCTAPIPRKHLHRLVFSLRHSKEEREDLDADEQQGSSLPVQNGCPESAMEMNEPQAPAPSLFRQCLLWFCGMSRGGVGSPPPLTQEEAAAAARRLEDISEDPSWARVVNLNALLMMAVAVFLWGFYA
The assay is described as follows: Methyl-α-D-[U-14C]glucopyranoside uptake assay in HEK293.ETN cells stably expressing human SGLT2. In kind it is cell-based. The settings on record: 1.5 h incubation. From the text: A full-length cDNA clone expressing human SGLT2 (GenScript Corporation) was subcloned into Hind III and Not I sites of pEAK15 expression vector. Clones harboring the cDNA inserts were identified by restriction analysis.
Plasmid containing human SGLT2 was linearized with Nsi I and purified by agarose gel electrophoresis. Using Lipofectamine 2000 Transfection Reagent (Invitrogen Corporation), DNA was transfected into HEK293.ETN cells and cultured in Dulbecco's Modified Eagle Medium (DMEM) containing 10% fetal bovine serum (FBS) at 37° C. under 5% CO2 for 24 h. Transfectants were selected in the same growth medium supplemented with puromycin (Invitrogen Corporation) for two weeks. Puromycin-resistant cells were recovered and seeded on a fresh 96-well plate (single cell per well) and cultured in the presence of puromycin until cells became confluent. Puromycin-resistant clones were evaluated for SGLT2 activity in the methyl-α-D-[U-^14C]glucopyranoside uptake assay described below.
(§1) Cells expressing SGLT1 or SGLT2 were seeded on 96-well ScintiPlate scintillating plates (PerkinElmer, Inc.) in DMEM containing 10% FBS (1×10^5 cells per well in 100 μl medium) incubated at 37° C. under 5% CO2 for 48 h prior to the assay. Cells were washed twice with 150 μl of either sodium buffer (137 mM NaCl, 5.4 mM KCl, 2.8 mM CaCl2, 1.2 mM MgCl2, 10 mM tris(hydroxymethyl)aminomethane/N^2-hydroxyethylpiperazine-N′-ethanesulfonic acid [Tris/Hepes], pH 7.2) or sodium-free buffer (137 mM N-methyl-glucamine, 5.4 mM KCl, 2.8 mM CaCl2, 1.2 mM MgCl2, 10 mM Tris/Hepes, pH 7.2). Test compound in 50 μl each of sodium or sodium-free buffer containing 40 μCi/ml methyl-α-D-[U-^14C]glucopyranoside (Amersham Biosciences/GE Healthcare), either with (symbols in parentheses) or without (symbols without parentheses) 25% human serum, was added per well of a 96-well plate and incubated at 37° C. with shaking for either 2 h (SGLT1 assay) or 1.5 h (SGLT2 assay). Cells were washed twice with 150 μl of wash buffer (137 mM N-methylglucamine, 10 mM Tris/Hepes, pH 7.2) and methyl-α-D-[U-^14C]glucopyranoside uptake was quantitated using a TopCount scintillation counter (PerkinElmer, Inc.). Sodium-dependent glucopyranoside uptake was measured by subtracting the values obtained with sodium-free buffer from those obtained using sodium buffer (average of triplicate determinations).

The target of the next assay is T2, human SGLT1 (Homo sapiens, UniProt P13866).
T2 construct: Full-length human SGLT1 cDNA on pDream2.1 expression vector; host or cells: COS-7 cells (American Type Culture Collection)
T2 sequence (P13866 1-664): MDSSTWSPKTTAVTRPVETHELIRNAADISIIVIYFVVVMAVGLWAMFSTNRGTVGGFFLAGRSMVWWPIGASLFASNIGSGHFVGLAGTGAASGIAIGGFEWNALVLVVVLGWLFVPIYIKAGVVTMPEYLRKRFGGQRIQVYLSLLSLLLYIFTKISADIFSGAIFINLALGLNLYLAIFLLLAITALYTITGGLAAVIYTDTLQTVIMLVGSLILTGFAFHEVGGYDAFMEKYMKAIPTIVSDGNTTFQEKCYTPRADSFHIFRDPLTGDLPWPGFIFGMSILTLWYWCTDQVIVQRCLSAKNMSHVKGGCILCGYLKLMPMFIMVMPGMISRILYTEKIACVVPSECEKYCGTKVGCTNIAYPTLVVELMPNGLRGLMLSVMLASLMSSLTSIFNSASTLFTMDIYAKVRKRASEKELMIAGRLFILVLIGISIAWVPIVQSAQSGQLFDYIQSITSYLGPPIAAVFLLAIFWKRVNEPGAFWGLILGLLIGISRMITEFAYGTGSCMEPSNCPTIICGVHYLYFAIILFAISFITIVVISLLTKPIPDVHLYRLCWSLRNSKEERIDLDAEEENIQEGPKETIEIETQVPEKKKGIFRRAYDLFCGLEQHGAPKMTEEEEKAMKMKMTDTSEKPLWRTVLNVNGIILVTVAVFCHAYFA
The assay is described as follows: Methyl-α-D-[U-14C]glucopyranoside uptake assay in COS-7 cells expressing human SGLT1. In kind it is cell-based. To be noted: 2 h incubation. How it is done:
Full-length human SGLT1 cDNA on pDream2.1 expression vector was obtained from GenScript Corporation and propagated in Escherichia coli strain DH5α using Luria-Bertani (LB) medium containing ampicillin. Plasmid DNA was isolated using the QIAGEN Plasmid Midi Kit (QIAGEN Inc.). […] Transfected cells were stored in DMEM containing 10% dimethyl sulfoxide (DMSO) at −80° C.
as §1

Setting [1] is: incubation with 25% human serum (symbols in parentheses).
[2] abbreviates: without human serum (symbols without parentheses).

For orientation: IC50 means the concentration needed to halve the response being measured. Turning to `CC1(OCCOc2ccc(Cc3cc([C@@H]4O[C@H](CO)[C@@H](O)[C@H](O)[C@H]4O)ccc3Cl)cc2)CC1` [Compound CP, (2S,3R,4R,5S,6R)-2-(4-chloro-3-(4-(2-(1-methylcyclopropoxy)ethoxy)benzyl)phenyl)-6-(hydroxymethyl)tetrahydro-2H-pyran-3,4,5-triol], the IC50 at human SGLT2 (setting [1]) is below 1000 nM; on human SGLT1 (setting [1]), above 10000 nM.

In the case of `C#CCOCC(C)Oc1ccc(Cc2cc([C@@H]3O[C@H](CO)[C@@H](O)[C@H](O)[C@H]3O)ccc2Cl)cc1` (stereo partly drawn) [Compound T, (2S,3R,4R,5S,6R)-2-(4-chloro-3-(4-(1-(prop-2-ynyloxy)propan-2-yloxy)benzyl)phenyl)-6-(hydroxymethyl)tetrahydro-2H-pyran-3,4,5-triol], the values for the IC50 on human SGLT2 (setting [1]) and on human SGLT1 (setting [1]) were below 1000 nM and above 10000 nM, respectively.

Take `OC[C@H]1O[C@@H](c2ccc(Cl)c(Cc3ccc(OCCO[C@H]4CCOC4)cc3)c2)[C@H](O)[C@@H](O)[C@@H]1O` [Compound CK, (2S,3R,4R,5S,6R)-2-(4-chloro-3-(4-(2-((S)-tetrahydrofuran-3-yloxy)ethoxy)benzyl)phenyl)-6-(hydroxymethyl)tetrahydro-2H-pyran-3,4,5-triol]: the 50% inhibitory concentration (IC50) at human SGLT2 (setting [1]) was below 1000 nM; at human SGLT1 (setting [1]) it was 1000 to 10000 nM.

For the compound `CC(COc1ccc(Cc2cc([C@@H]3O[C@H](CO)[C@@H](O)[C@H](O)[C@H]3O)ccc2Cl)cc1)OC1CC1` (stereo partly drawn) [Compound DC, (2S,3R,4R,5S,6R)-2-(4-chloro-3-(4-(2-cyclopropoxypropoxy)benzyl)phenyl)-6-(hydroxymethyl)tetrahydro-2H-pyran-3,4,5-triol], the results for the IC50 on human SGLT2 (setting [1]) and at human SGLT1 (setting [1]) were below 1000 nM and 1000 to 10000 nM, respectively.

`OC[C@H]1O[C@@H](c2ccc(Cl)c(Cc3ccc(OCCOC4C=CCCC4)cc3)c2)[C@H](O)[C@@H](O)[C@@H]1O` (stereo partly drawn) [Compound BW, (2S,3R,4R,5S,6R)-2-(4-chloro-3-(4-(2-(cyclohex-2-enyloxy)ethoxy)benzyl)phenyl)-6-(hydroxymethyl)tetrahydro-2H-pyran-3,4,5-triol]: the IC50 on human SGLT2 (setting [1]) was below 1000 nM; on human SGLT1 (setting [1]), above 10000 nM.

Turning to `COCCOCCOc1ccc(Cc2cc([C@@H]3O[C@H](CO)[C@@H](O)[C@H](O)[C@H]3O)ccc2Cl)cc1` [Compound M, (2S,3R,4R,5S,6R)-2-(4-chloro-3-(4-(2-(2-methoxyethoxy)ethoxy)benzyl)phenyl)-6-(hydroxymethyl)tetrahydro-2H-pyran-3,4,5-triol], the IC50 is below 1000 nM on human SGLT2 (setting [2]) and 1000 to 10000 nM at human SGLT1 (setting [2]).

Consider `OC[C@H]1O[C@@H](c2ccc(Cl)c(Cc3ccc(OCCOCCN4CCCC4)cc3)c2)[C@H](O)[C@@H](O)[C@@H]1O` [Compound CH, (2S,3R,4R,5S,6R)-2-(4-chloro-3-(4-(2-(2-(pyrrolidin-1-yl)ethoxy)ethoxy)benzyl)phenyl)-6-(hydroxymethyl)tetrahydro-2H-pyran-3,4,5-triol], for which the IC50 was below 1000 nM on human SGLT2 (setting [1]) and 1000 to 10000 nM on human SGLT1 (setting [1]).

For `OC[C@H]1O[C@@H](c2ccc(Cl)c(Cc3ccc(OCCOCC(F)(F)F)cc3)c2)[C@H](O)[C@@H](O)[C@@H]1O` [Compound BT, (2S,3R,4R,5S,6R)-2-(4-chloro-3-(4-(2-(2,2,2-trifluoroethoxy)ethoxy)benzyl)phenyl)-6-(hydroxymethyl)tetrahydro-2H-pyran-3,4,5-triol], the IC50 is below 1000 nM on human SGLT2 (setting [1]) and 1000 to 10000 nM at human SGLT1 (setting [1]).
